ChEMBL document CHEMBL5329189, “Design, synthesis, and anti-hepatocellular carcinoma of thiopyrimidine/chalcone hybrids as dual STAT3/STAT5 inhibitors” (RSC Med Chem, 2023)
pIC50: −log10 of the molar value. Blank lines part the entries; values can stand above or below the compound they belong to. The source made the active and inactive calls. No cut-off for these calls is given here.

Key:
[1] = biological target: T1, Signal transducer and activator of transcription 5A (Homo sapiens) (UniProt P42229); assay: Inhibition of STAT5a (unknown origin) using TMB as substrate assessed as reduction in phosphorylated STAT5a at Y694 residue by measuring fold change at 10 uM incubated for 1.5 hrs by ELISA relative to control
T1 sequence (whole entry): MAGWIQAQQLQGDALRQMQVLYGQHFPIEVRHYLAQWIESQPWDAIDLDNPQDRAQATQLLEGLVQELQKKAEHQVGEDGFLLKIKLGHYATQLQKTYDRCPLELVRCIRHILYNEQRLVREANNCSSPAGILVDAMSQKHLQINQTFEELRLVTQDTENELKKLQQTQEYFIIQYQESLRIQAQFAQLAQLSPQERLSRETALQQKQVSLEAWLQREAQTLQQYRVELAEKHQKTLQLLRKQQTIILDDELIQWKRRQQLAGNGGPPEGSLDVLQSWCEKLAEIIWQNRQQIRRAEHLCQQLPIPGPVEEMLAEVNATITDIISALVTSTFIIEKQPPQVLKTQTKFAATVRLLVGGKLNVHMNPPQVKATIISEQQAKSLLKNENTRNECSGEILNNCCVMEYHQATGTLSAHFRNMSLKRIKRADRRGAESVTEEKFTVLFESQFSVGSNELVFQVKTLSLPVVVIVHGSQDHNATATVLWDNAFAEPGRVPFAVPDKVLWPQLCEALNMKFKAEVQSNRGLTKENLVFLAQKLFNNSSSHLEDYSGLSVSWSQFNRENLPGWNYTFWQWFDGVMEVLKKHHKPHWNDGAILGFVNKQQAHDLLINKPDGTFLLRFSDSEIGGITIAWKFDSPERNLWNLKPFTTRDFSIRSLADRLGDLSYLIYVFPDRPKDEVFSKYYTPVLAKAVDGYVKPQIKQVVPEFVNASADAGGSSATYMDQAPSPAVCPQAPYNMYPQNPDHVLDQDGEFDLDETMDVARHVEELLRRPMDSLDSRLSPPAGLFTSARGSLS

[2] = biological target: T1, Signal transducer and activator of transcription 5A (Homo sapiens); assay: Inhibition of STAT5a (unknown origin) using TMB as substrate assessed as reduction in phosphorylated STAT5a at Y694 residue at 10 uM incubated for 1.5 hrs by ELISA (reference value: 11.15 +/- 0.91 ng/ml)
[3] = Selectivity index, ratio of IC50 for cytotoxicity against THLE-2 cells to IC50 for antitumor activity against human Huh-7 cells; format: cell-based; details: THLE-2 cells versus Huh-7 cells, read-out: Ratio IC50
[4] = biological target: Signal transducer and activator of transcription 3 (Homo sapiens) (UniProt P40763); assay: Inhibition of STAT3 (unknown origin) using TMB as substrate assessed as reduction in phosphorylated STAT3 at Y705 residue at 10 uM incubated for 5 hrs by ELISA (reference value: 14.53 +/- 0.4 ng/ml)
[5] = Selectivity index, ratio of IC50 for cytotoxicity against THLE-2 cells to IC50 for antitumor activity against human HepG2 cells; format: cell-based; details: THLE-2 cells versus HepG2 cells, read-out: Ratio IC50
[6] = Cytotoxicity against THLE-2 cells measured after 48 hrs by MTT assay; format: toxicity, cell-based; details: human
HepG2 [7] = assay: Antitumor activity against human HepG2 cells measured after 48 hrs by MTT assay; format: functional, cell-based; details: HepG2, 48 h
Huh-7 [8] = assay: Antitumor activity against human Huh7 cells measured after 48 hrs by MTT assay; format: functional, cell-based; details: Huh-7, 48 h
[9] = biological target: Signal transducer and activator of transcription 3 (Homo sapiens) (UniProt P40763); assay: Inhibition of STAT3 (unknown origin) using TMB as substrate assessed as reduction in phosphorylated STAT3 at Y705 residue by measuring fold change at 10 uM incubated for 5 hrs by ELISA relative to control
HepG2 [10] = assay: Effect on total STAT5 protein level in human HepG2 cells incubated for 24 hrs by Western blot analysis; format: functional, cell-based
HepG2 [11] = assay: Effect on total STAT3 protein level in human HepG2 cells incubated for 24 hrs by Western blot analysis; format: functional, cell-based
Huh-7 [12] = assay: Potency index, ratio of doxorubicin IC50 to test compound IC50 for antitumor activity against human Huh-7 cells incubated for 48 hrs by MTT assay; format: functional
HepG2 [13] = assay: Inhibition of STAT5 phosphorylation at Tyr694 residue in human HepG2 cells incubated for 24 hrs by Western blot analysis; format: cell-based
[14] = biological target: Signal transducer and activator of transcription 3 (Homo sapiens) (UniProt P40763); assay: Inhibition of STAT3 phosphorylation at Tyr705 residue in human HepG2 cells incubated for 24 hrs by Western blot analysis; format: cell-based
[15] = biological target: T2, Signal transducer and activator of transcription 1-alpha/beta (Homo sapiens) (UniProt P42224); assay: Inhibition of STAT1 in human HepG2 cells assessed as reduction in STAT1 phosphorylation at Tyr701 residue incubated for 24 hrs by Western blot analysis; format: cell-based
T2 sequence (whole entry): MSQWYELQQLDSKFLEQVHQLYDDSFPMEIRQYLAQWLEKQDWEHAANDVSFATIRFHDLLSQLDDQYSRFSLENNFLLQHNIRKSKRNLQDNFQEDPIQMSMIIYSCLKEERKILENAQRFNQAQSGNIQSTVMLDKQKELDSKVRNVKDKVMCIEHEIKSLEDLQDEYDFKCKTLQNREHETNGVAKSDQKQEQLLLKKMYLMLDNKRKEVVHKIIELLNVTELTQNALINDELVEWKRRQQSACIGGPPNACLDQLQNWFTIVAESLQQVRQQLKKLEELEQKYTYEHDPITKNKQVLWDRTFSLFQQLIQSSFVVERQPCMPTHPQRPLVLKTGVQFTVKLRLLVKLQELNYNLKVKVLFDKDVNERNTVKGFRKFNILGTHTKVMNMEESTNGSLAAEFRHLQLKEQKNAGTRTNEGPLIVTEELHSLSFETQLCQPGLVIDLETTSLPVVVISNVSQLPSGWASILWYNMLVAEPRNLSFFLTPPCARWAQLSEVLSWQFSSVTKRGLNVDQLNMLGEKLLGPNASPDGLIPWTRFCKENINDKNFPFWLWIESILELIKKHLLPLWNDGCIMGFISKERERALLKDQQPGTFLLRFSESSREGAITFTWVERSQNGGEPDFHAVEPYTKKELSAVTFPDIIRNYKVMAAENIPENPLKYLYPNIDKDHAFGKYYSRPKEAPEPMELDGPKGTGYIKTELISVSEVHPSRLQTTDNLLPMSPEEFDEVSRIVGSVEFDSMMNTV

Huh-7 [16] = assay: Potency index, ratio of static IC50 to test compound IC50 for antitumor activity against human Huh-7 cells incubated for 48 hrs by MTT assay; format: functional
HepG2 [17] = assay: Potency index, ratio of doxorubicin IC50 to test compound IC50 for antitumor activity against human HepG2 cells incubated for 48 hrs by MTT assay; format: functional
HepG2 [18] = assay: Potency index, ratio of stattic IC50 to test compound IC50 for antitumor activity against human HepG2 cells incubated for 48 hrs by MTT assay; format: functional
[19] = biological target: T1, Signal transducer and activator of transcription 5A (Homo sapiens); assay: Inhibition of STAT5a (unknown origin) using TMB as substrate assessed as reduction in phosphorylated STAT5a at Y694 residue incubated for 1.5 hrs by ELISA (reference value: 11.15 +/- 0.91 ng/ml)
[20] = biological target: Signal transducer and activator of transcription 3 (Homo sapiens) (UniProt P40763); assay: Inhibition of STAT3 (unknown origin) using TMB as substrate assessed as reduction in phosphorylated STAT3 at Y705 residue incubated for 5 hrs by ELISA (reference value: 14.53 +/- 0.4 ng/ml)

Sequence of Signal transducer and activator of transcription 3 (Homo sapiens) (P40763 whole entry): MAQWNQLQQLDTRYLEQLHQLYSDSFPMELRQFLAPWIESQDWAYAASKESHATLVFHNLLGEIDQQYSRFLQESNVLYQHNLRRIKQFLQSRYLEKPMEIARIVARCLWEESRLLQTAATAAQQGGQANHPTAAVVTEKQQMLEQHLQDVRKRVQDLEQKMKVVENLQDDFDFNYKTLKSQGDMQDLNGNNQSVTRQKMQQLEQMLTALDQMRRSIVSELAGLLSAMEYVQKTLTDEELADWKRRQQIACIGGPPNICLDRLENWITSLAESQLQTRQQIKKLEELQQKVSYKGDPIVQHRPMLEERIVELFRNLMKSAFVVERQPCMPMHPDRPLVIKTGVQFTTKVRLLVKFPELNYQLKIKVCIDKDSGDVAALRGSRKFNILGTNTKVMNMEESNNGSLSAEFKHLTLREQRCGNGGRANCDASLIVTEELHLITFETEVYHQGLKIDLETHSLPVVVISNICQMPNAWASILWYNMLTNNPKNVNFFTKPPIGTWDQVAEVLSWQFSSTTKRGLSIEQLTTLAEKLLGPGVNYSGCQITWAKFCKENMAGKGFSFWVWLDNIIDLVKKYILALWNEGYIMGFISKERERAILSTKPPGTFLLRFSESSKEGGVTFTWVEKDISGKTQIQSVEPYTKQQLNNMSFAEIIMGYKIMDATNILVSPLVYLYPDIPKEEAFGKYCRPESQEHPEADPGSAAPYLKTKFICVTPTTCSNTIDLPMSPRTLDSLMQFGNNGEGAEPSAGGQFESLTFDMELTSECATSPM

- fold change (FC) [1]: 2.5
- Activity [2]: 4.44 ng/mL
- Activity [4]: 5.09 ng/mL
- pIC50 (HepG2 [7]): 5.59
- pIC50 (Huh-7 [8]): 5.61
- fold change (FC) [9]: 2.8
Compound: Cc1ccc(/C=C/C(=O)c2ccc(NC(=O)CSc3nc(N)cc(=O)[nH]3)cc2)cc1
- selectivity ratio [3]: 20.3
- selectivity ratio [5]: 19.2
- IC50 at 48 h [6]: 49.5 µM

- pIC50 (HepG2 [7]): 5.29
- pIC50 (Huh-7 [8]): 5.80
Compound: COc1cc(/C=C/C(=O)c2ccc(NC(=O)CSc3nc(N)cc(=O)[nH]3)cc2)cc(OC)c1

- pIC50 (HepG2 [7]): 4.65
- pIC50 (Huh-7 [8]): 4.60
Compound: Nc1cc(=O)[nH]c(SCC(=O)Nc2ccc(C(=O)/C=C/c3ccc(F)cc3)cc2)n1

- fold change (FC) [1]: 4.8
- Activity [2]: 2.28 ng/mL
- Activity [4]: 3.19 ng/mL
- inhibition [14]: Active
- inhibition [15]: inactive
- pIC50 (HepG2 [7]): 5.71
- pIC50 (Huh-7 [8]): 6.26
- fold change (FC) [9]: 4.5
Compound: COc1cc(/C=C/C(=O)c2ccc(NC(=O)CSc3nc(N)cc(=O)[nH]3)cc2)cc(OC)c1OC
- Activity (HepG2 [10]): inactive
- selectivity ratio [3]: 115
- Activity (HepG2 [11]): inactive
- Ratio IC50 (Huh-7 [12]): 10.4
- inhibition (HepG2 [13]): Active
- selectivity ratio [5]: 32.4
- IC50 at 48 h [6]: 63.2 µM
- Ratio IC50 (Huh-7 [16]): 14.3
- Ratio IC50 (HepG2 [17]): 3.7
- Ratio IC50 (HepG2 [18]): 4.2

- Activity [19]: 9.43 ng/mL
- pIC50 (HepG2 [7]): 5.08
- Activity [20]: 4.9 ng/mL
- pIC50 (Huh-7 [8]): 5.10
Compound: O=[N+]([O-])c1ccc2c(c1)S(=O)(=O)C=C2
- IC50 at 48 h [6]: > 100 µM

- pIC50 (HepG2 [7]): 5.31
- pIC50 (Huh-7 [8]): 5.08
Compound: Nc1cc(=O)[nH]c(SCC(=O)Nc2ccc(C(=O)/C=C/c3ccc(Cl)cc3Cl)cc2)n1

- pIC50 (HepG2 [7]): 4.95
- pIC50 (Huh-7 [8]): 5.14
Compound: Nc1cc(=O)[nH]c(SCC(=O)Nc2ccc(C(=O)/C=C/c3ccc(Cl)cc3)cc2)n1

- pIC50 (HepG2 [7]): 4.51
- pIC50 (Huh-7 [8]): 4.64
Compound: CN(C)c1ccc(/C=C/C(=O)c2ccc(NC(=O)CSc3nc(N)cc(=O)[nH]3)cc2)cc1

- pIC50 (HepG2 [7]): 5.45
- pIC50 (Huh-7 [8]): 5.66
Compound: Nc1cc(=O)[nH]c(SCC(=O)Nc2ccc(C(=O)/C=C/c3ccccc3Cl)cc2)n1

- pIC50 (HepG2 [7]): 5.13
- pIC50 (Huh-7 [8]): 5.24
Compound: COc1cccc2c1C(=O)c1c(O)c3c(c(O)c1C2=O)C[C@@](O)(C(=O)CO)C[C@@H]3O[C@H]1C[C@H](N)[C@H](O)[C@H](C)O1 [DOXORUBICIN]

- pIC50 (HepG2 [7]): 5.09
- pIC50 (Huh-7 [8]): 5.17
Compound: COc1ccc(/C=C/C(=O)c2ccc(NC(=O)CSc3nc(N)cc(=O)[nH]3)cc2)cc1
